# Reference: ChEMBL document CHEMBL1126050, “Edward E. Smissman-Bristol-Myers Squibb Award Address. The role of concepts in structure-activity relationship studies of opioid ligands” (1992)
# Tested on: Mus musculus
# Experiment: Compound was evaluated for antinociceptive potency by subcutaneous administration in mice using the hotplate assay
# Assay type: functional
# Conditions: sc
row,SMILES,ED50
1,CC1[C@@H]2Cc3ccc(O)cc3[C@@]1(C)CCN2CCc1ccccc1 (some centres undefined),0.1 mg/kg
2,C[C@H]1C2Cc3ccc(O)cc3[C@]1(C)CCN2C,2.6 mg/kg
3,Oc1cccc([C@@]23CCC[C@@H](C2)N(CCc2ccccc2)CC3)c1,3.99 mg/kg
4,CN1CC[C@]2(c3cccc(O)c3)CCC[C@H]1C2,2 mg/kg
